Data: patent publication US10810329B2, “In silico design of peptides equilibrated in a lipid bilayer with partition free energies indicating probability of antimicrobial activity” (priority 2015, dated 2020)
≈ marks a conversion by molar mass, not a printed value. Peptide text beside a SMILES is read from it.

Tests used:
[1] = system: Escherichia coli strain (ATCC 25922); format: cell-based
Method: (§1) Minimal inhibitory concentration (MIC) represents for the lowest concentration of peptide at which the AMP can still kill 90% of the bacteria. All MIC tests for WLK peptide series SEQ ID NO:1-13 were measured against Escherichia coli strain (ATCC 25922) in triplicate. Peptide concentration was determined by UV spectrophotometer (Ultrospec 1100 pro from Amersham Biosciences) at 280 nm with proper extinction coefficient. (Gill S. C. & Von Hippel P. H., Analytical biochemistry 1989, 182(2), 319-326). All of the samples were prepared from a stock solution containing peptides of concentrations 5, 2.5, 1.25, 0.625, 0.313, 0.156 and 0.078 mg/ml. Bacteria culture in the middle of logarithmic growth at a concentration of 5×10^5 colony-formation unit (CFU) and protein solution at the aforementioned concentrations were uniformly mixed in a 96-well culture plate (each well contains 1 microliter protein solution and 99 microliter of bacteria culture). After growing the culture at 37° C. for 16 hours, how bacterial growth was inhibited was measured by Thermo Max (Molecular Devices) at the wavelength of 600 nm. The MIC values were determined by triplicates of the above experiments.

E. coli ATCC 25922 = format: cell-based, Escherichia coli; settings: for Antimicrobial activity (MIC) Experimental values: ATCC 25922; for MIC in MH medium: ATCC 25922, 16 h
Method: as §1, with “MIC: Minimal Inhibitory Concentration of AMPs in MH Medium Against E. coli ATCC 25922 Minimal” for “Minimal”

Row | MIC in LYM medium, NaCl 50 [1] | MIC in LYM medium, NaCl 100 [1] | MIC in LYM medium, NaCl 200 [1] | MIC in LYM medium, NaCl 300 [1] | MIC in LYM medium, control [1] | Antimicrobial activity (MIC) Experimental values (E. coli ATCC 25922) | MIC in MH medium (E. coli ATCC 25922) | Compound
1 | 3.13 µg/mL (≈ 1.73 µM) | 6.25 µg/mL (≈ 3.45 µM) | 12.5 µg/mL (≈ 6.89 µM) | 50 µg/mL (≈ 27.6 µM) | 3.13 µg/mL (≈ 1.73 µM) | 12.5 µg/mL | 12.5 µg/mL (≈ 6.89 µM) | CC(C)C[C@H](NC(=O)[C@H](Cc1c[nH]c2ccccc12)NC(=O)[C@H](CCCCN)NC(=O)[C@H](CCCCN)NC(=O)[C@H](CCCCN)NC(=O)[C@H](CCCCN)NC(=O)[C@H](CCCCN)NC(=O)[C@H](CC(C)C)NC(=O)[C@H](Cc1c[nH]c2ccccc12)NC(=O)[C@H](CCCCN)NC(=O)[C@@H](N)CC(C)C)C(=O)N[C@@H](CCCCN)C(=O)N[C@@H](Cc1c[nH]c2ccccc12)C(=O)O [SEQ ID NO. 7, LKWLKKKKKWLKW] (H-LKWLKKKKKWLKW-OH; N-terminus and C-terminus assumed)
2 | 3.13 µg/mL (≈ 1.73 µM) | 3.13 µg/mL (≈ 1.73 µM) | 12.5 µg/mL (≈ 6.89 µM) | 25 µg/mL (≈ 13.8 µM) | 1.56 µg/mL (≈ 0.86 µM) | 6.25 µg/mL | 6.25 µg/mL (≈ 3.45 µM) | CC(C)C[C@H](NC(=O)[C@H](Cc1c[nH]c2ccccc12)NC(=O)[C@H](CCCCN)NC(=O)[C@H](CC(C)C)NC(=O)[C@H](Cc1c[nH]c2ccccc12)NC(=O)[C@H](CCCCN)NC(=O)[C@H](CC(C)C)NC(=O)[C@@H](N)Cc1c[nH]c2ccccc12)C(=O)N[C@@H](CCCCN)C(=O)N[C@@H](CCCCN)C(=O)N[C@@H](CCCCN)C(=O)N[C@@H](CCCCN)C(=O)N[C@@H](CCCCN)C(=O)O [SEQ ID NO. 3, WLKWLKWLKKKKK] (H-WLKWLKWLKKKKK-OH; N-terminus and C-terminus assumed)
3 | 1.56 µg/mL (≈ 0.86 µM) | 1.56 µg/mL (≈ 0.86 µM) | 1.56 µg/mL (≈ 0.86 µM) | 3.13 µg/mL (≈ 1.73 µM) | 1.56 µg/mL (≈ 0.86 µM) | 1.56 µg/mL | 1.56 µg/mL (≈ 0.86 µM) | CC(C)C[C@H](NC(=O)[C@H](Cc1c[nH]c2ccccc12)NC(=O)[C@H](CCCCN)NC(=O)[C@H](CC(C)C)NC(=O)[C@H](Cc1c[nH]c2ccccc12)NC(=O)[C@H](CCCCN)NC(=O)[C@H](CC(C)C)NC(=O)[C@H](Cc1c[nH]c2ccccc12)NC(=O)[C@H](CCCCN)NC(=O)[C@H](CCCCN)NC(=O)[C@H](CCCCN)NC(=O)[C@H](CCCCN)NC(=O)[C@@H](N)CCCCN)C(=O)O [SEQ ID NO. 11, KKKKKWLKWLKWL] (H-KKKKKWLKWLKWL-OH; N-terminus and C-terminus assumed)
4 | 3.13 µg/mL (≈ 1.73 µM) | 3.13 µg/mL (≈ 1.73 µM) | 6.25 µg/mL (≈ 3.45 µM) | 25 µg/mL (≈ 13.8 µM) | 3.13 µg/mL (≈ 1.73 µM) | 6.25 µg/mL | 6.25 µg/mL (≈ 3.45 µM) | CC(C)C[C@H](NC(=O)[C@H](Cc1c[nH]c2ccccc12)NC(=O)[C@H](CCCCN)NC(=O)[C@H](CC(C)C)NC(=O)[C@H](Cc1c[nH]c2ccccc12)NC(=O)[C@H](CCCCN)NC(=O)[C@H](CCCCN)NC(=O)[C@H](CCCCN)NC(=O)[C@H](CCCCN)NC(=O)[C@H](CCCCN)NC(=O)[C@@H](N)CC(C)C)C(=O)N[C@@H](CCCCN)C(=O)N[C@@H](Cc1c[nH]c2ccccc12)C(=O)O [SEQ ID NO. 10, LKKKKKWLKWLKW] (H-LKKKKKWLKWLKW-OH; N-terminus and C-terminus assumed)
5 | 3.13 µg/mL (≈ 1.73 µM) | 6.25 µg/mL (≈ 3.45 µM) | 12.5 µg/mL (≈ 6.89 µM) | 25 µg/mL (≈ 13.8 µM) | 1.56 µg/mL (≈ 0.86 µM) | 6.25 µg/mL | 6.25 µg/mL (≈ 3.45 µM) | CC(C)C[C@H](NC(=O)[C@H](Cc1c[nH]c2ccccc12)NC(=O)[C@H](CCCCN)NC(=O)[C@H](CCCCN)NC(=O)[C@H](CCCCN)NC(=O)[C@H](CCCCN)NC(=O)[C@H](CCCCN)NC(=O)[C@H](CC(C)C)NC(=O)[C@H](Cc1c[nH]c2ccccc12)NC(=O)[C@H](CCCCN)NC(=O)[C@H](CC(C)C)NC(=O)[C@@H](N)Cc1c[nH]c2ccccc12)C(=O)N[C@@H](CCCCN)C(=O)O [SEQ ID NO. 6, WLKWLKKKKKWLK] (H-WLKWLKKKKKWLK-OH; N-terminus and C-terminus assumed)
6 | 3.13 µg/mL (≈ 1.73 µM) | 3.13 µg/mL (≈ 1.73 µM) | 6.25 µg/mL (≈ 3.45 µM) | 12.5 µg/mL (≈ 6.89 µM) | 3.13 µg/mL (≈ 1.73 µM) | 6.25 µg/mL | 6.25 µg/mL (≈ 3.45 µM) | CC(C)C[C@H](NC(=O)[C@H](Cc1c[nH]c2ccccc12)NC(=O)[C@H](CCCCN)NC(=O)[C@H](CC(C)C)NC(=O)[C@H](Cc1c[nH]c2ccccc12)NC(=O)[C@H](CCCCN)NC(=O)[C@H](CCCCN)NC(=O)[C@H](CCCCN)NC(=O)[C@H](CCCCN)NC(=O)[C@H](CCCCN)NC(=O)[C@H](CC(C)C)NC(=O)[C@H](Cc1c[nH]c2ccccc12)NC(=O)[C@@H](N)CCCCN)C(=O)O [SEQ ID NO. 8, KWLKKKKKWLKWL] (H-KWLKKKKKWLKWL-OH; N-terminus and C-terminus assumed)
7 | 1.56 µg/mL (≈ 0.86 µM) | 3.13 µg/mL (≈ 1.73 µM) | 6.25 µg/mL (≈ 3.45 µM) | 6.25 µg/mL (≈ 3.45 µM) | 1.56 µg/mL (≈ 0.86 µM) | 3.13 µg/mL | 3.13 µg/mL (≈ 1.73 µM) | CC(C)C[C@H](NC(=O)[C@H](Cc1c[nH]c2ccccc12)NC(=O)[C@H](CCCCN)NC(=O)[C@H](CC(C)C)NC(=O)[C@H](Cc1c[nH]c2ccccc12)NC(=O)[C@H](CCCCN)NC(=O)[C@H](CC(C)C)NC(=O)[C@H](Cc1c[nH]c2ccccc12)NC(=O)[C@H](CCCCN)NC(=O)[C@@H](N)CCCCN)C(=O)N[C@@H](CCCCN)C(=O)N[C@@H](CCCCN)C(=O)N[C@@H](CCCCN)C(=O)O [SEQ ID NO. 1, KKWLKWLKWLKKK, reference compound] (H-KKWLKWLKWLKKK-OH; N-terminus and C-terminus assumed)
8 | 3.13 µg/mL (≈ 1.73 µM) | 3.13 µg/mL (≈ 1.73 µM) | 12.5 µg/mL (≈ 6.89 µM) | 50 µg/mL (≈ 27.6 µM) | 3.13 µg/mL (≈ 1.73 µM) | 6.25 µg/mL | 6.25 µg/mL (≈ 3.45 µM) | CC(C)C[C@H](NC(=O)[C@H](Cc1c[nH]c2ccccc12)NC(=O)[C@H](CCCCN)NC(=O)[C@H](CC(C)C)NC(=O)[C@H](Cc1c[nH]c2ccccc12)NC(=O)[C@H](CCCCN)NC(=O)[C@H](CCCCN)NC(=O)[C@H](CCCCN)NC(=O)[C@H](CCCCN)NC(=O)[C@H](CCCCN)NC(=O)[C@H](CC(C)C)NC(=O)[C@@H](N)Cc1c[nH]c2ccccc12)C(=O)N[C@@H](CCCCN)C(=O)O [SEQ ID NO. 9, WLKKKKKWLKWLK] (H-WLKKKKKWLKWLK-OH; N-terminus and C-terminus assumed)
9 | 3.13 µg/mL (≈ 1.73 µM) | 12.5 µg/mL (≈ 6.89 µM) | 25 µg/mL (≈ 13.8 µM) | 50 µg/mL (≈ 27.6 µM) | 3.13 µg/mL (≈ 1.73 µM) | 12.5 µg/mL | 12.5 µg/mL (≈ 6.89 µM) | CC(C)C[C@H](NC(=O)[C@H](Cc1c[nH]c2ccccc12)NC(=O)[C@H](CCCCN)NC(=O)[C@H](CCCCN)NC(=O)[C@H](CCCCN)NC(=O)[C@H](CCCCN)NC(=O)[C@H](CCCCN)NC(=O)[C@H](CC(C)C)NC(=O)[C@H](Cc1c[nH]c2ccccc12)NC(=O)[C@H](CCCCN)NC(=O)[C@H](CC(C)C)NC(=O)[C@H](Cc1c[nH]c2ccccc12)NC(=O)[C@@H](N)CCCCN)C(=O)O [SEQ ID NO. 5, KWLKWLKKKKKWL] (H-KWLKWLKKKKKWL-OH; N-terminus and C-terminus assumed)
10 | 3.13 µg/mL (≈ 1.73 µM) | 1.56 µg/mL (≈ 0.86 µM) | 3.13 µg/mL (≈ 1.73 µM) | 12.5 µg/mL (≈ 6.89 µM) | 1.56 µg/mL (≈ 0.86 µM) | 1.56 µg/mL | 1.56 µg/mL (≈ 0.86 µM) | CC(C)C[C@H](NC(=O)[C@H](Cc1c[nH]c2ccccc12)NC(=O)[C@H](CCCCN)NC(=O)[C@H](CC(C)C)NC(=O)[C@H](Cc1c[nH]c2ccccc12)NC(=O)[C@H](CCCCN)NC(=O)[C@H](CC(C)C)NC(=O)[C@H](Cc1c[nH]c2ccccc12)NC(=O)[C@H](CCCCN)NC(=O)[C@H](CCCCN)NC(=O)[C@@H](N)CCCCN)C(=O)N[C@@H](CCCCN)C(=O)N[C@@H](CCCCN)C(=O)O [SEQ ID NO. 13, KKKWLKWLKWLKK] (H-KKKWLKWLKWLKK-OH; N-terminus and C-terminus assumed)
